Data reported in patent publication US8324258B2, “F1F0-ATPase inhibitors and related methods” (The Regents of the University of Michigan, priority 2007, dated 2012).
Each block holds one compound with its values, some of them ahead of it.

Tests used:
[1] = test system: Ramos cells; assay: Cytotoxicity (cell death) in Ramos cells; assay type: cell-based
Procedure: (§1) The compounds listed in Table 9 were tested for activity against F1F0-ATPase by measuring ATP synthesis and ATP hydrolysis. In addition, the compounds were assessed for cytotoxicity in Ramos cells Inhibition of ATP synthesis and hydrolysis by the F1F0-ATPase and cytotoxicity in Ramos cells was measured as described in K. M. Johnson et al. Chemistry & Biology 2005, 12, 485-496.

[2] = target: T1, F1F0-ATPase (Bos taurus, UniProt P13621); assay: Inhibition of ATP hydrolysis by the F1F0-ATPase; assay type: biochemical; conditions: for ATP Hydrolysis (IC40 μM): IC40: concentration for 40% inhibition
Procedure: as §1

[3] = target: T1, F1F0-ATPase; assay: Inhibition of ATP synthesis by the F1F0-ATPase; assay type: biochemical; conditions: for ATP Synthesis (IC40 μM): IC40: concentration for 40% inhibition
Procedure: as §1

Structure (SMILES): O=C(N=C(NCCc1c[nH]cn1)Nc1ccccc1C(F)(F)F)c1cccc(Cl)c1 [III-23, (Z/E)-N-((2-(1H-imidazol-4-yl)ethylamino)(2-(trifluoromethyl)phenylamino)methylene)-3-chlorobenzamide]
- EC50 ([1]; Ramos cells): > 20 µM
- ATP Hydrolysis (IC40 μM) [2]: >20 µM
- ATP Synthesis (IC40 μM) [3]: >20 µM

Structure (SMILES): O=C(N=C(NCCc1c[nH]cn1)Nc1cccc(C(F)(F)F)c1)c1cccc(Cl)c1 [III-24, (Z/E)-N-((2-(1H-imidazol-4-yl)ethylamino)(3-(trifluoromethyl)phenylamino)methylene)-3-chlorobenzamide]
- EC50 ([1]; Ramos cells): > 10 µM
- ATP Hydrolysis (IC40 μM) [2]: <10 µM
- ATP Synthesis (IC40 μM) [3]: <10 µM

Structure (SMILES): O=C(N=C(NCCc1c[nH]cn1)Nc1ccc(C(F)(F)F)cc1)c1cccc(Cl)c1 [III-25, (Z/E)-N-((2-(1H-imidazol-4-yl)ethylamino)(4-(trifluoromethyl)phenylamino)methylene)-3-chlorobenzamide]
- EC50 ([1]; Ramos cells): > 10 µM
- ATP Hydrolysis (IC40 μM) [2]: <10 µM
- ATP Synthesis (IC40 μM) [3]: >10 µM

Structure (SMILES): O=C(N=C(NCCc1c[nH]cn1)Nc1ccc2ccccc2c1)c1cccc(Cl)c1 [III-26, (Z/E)-N-((2-(1H-imidazol-4-yl)ethylamino)(naphthalen-2-ylamino)methylene)-3-chlorobenzamide]
- EC50 ([1]; Ramos cells): > 10 µM
- ATP Hydrolysis (IC40 μM) [2]: >10 µM
- ATP Synthesis (IC40 μM) [3]: >10 µM

Structure (SMILES): O=C(N=C(NCCc1c[nH]cn1)Nc1cccc2ccccc12)c1cccc(Cl)c1 [III-27, (Z/E)-N-((2-(1H-imidazol-4-yl)ethylamino)(naphthalen-1-ylamino)methylene)-3-chlorobenzamide]
- EC50 ([1]; Ramos cells): > 10 µM
- ATP Hydrolysis (IC40 μM) [2]: >10 µM
- ATP Synthesis (IC40 μM) [3]: <10 µM

Structure (SMILES): O=C(N=C(NCCc1c[nH]cn1)Nc1ccc(-c2ccc(Cl)cc2)cc1)c1cccc(Cl)c1 [III-29, (Z/E)-N-((2-(1H-imidazol-4-yl)ethylamino)(4′-chlorobiphenyl-4-ylamino)methylene)-3-chlorobenzamide]
- EC50 ([1]; Ramos cells): < 10 µM
- ATP Hydrolysis (IC40 μM) [2]: >10 µM
- ATP Synthesis (IC40 μM) [3]: >10 µM

Structure (SMILES): Cc1cccc(-c2ccc(NC(=NC(=O)c3cccc(Cl)c3)NCCc3c[nH]cn3)cc2)c1 [III-31, (Z/E)-N-((2-(1H-imidazol-4-yl)ethylamino)(3′-methylbiphenyl-4-ylamino)methylene)-3-chlorobenzamide]
- EC50 ([1]; Ramos cells): < 10 µM
- ATP Hydrolysis (IC40 μM) [2]: >10 µM
- ATP Synthesis (IC40 μM) [3]: >10 µM

Structure (SMILES): COc1cccc(-c2ccc(NC(=NC(=O)c3cccc(Cl)c3)NCCc3c[nH]cn3)cc2)c1 [III-34, (Z/E)-N-((2-(1H-imidazol-4-yl)ethylamino)(3′-methoxybiphenyl-4-ylamino)methylene)-3-chlorobenzamide]
- EC50 ([1]; Ramos cells): < 10 µM
- ATP Hydrolysis (IC40 μM) [2]: >10 µM
- ATP Synthesis (IC40 μM) [3]: <10 µM

Structure (SMILES): COc1ccc(-c2ccc(NC(=NC(=O)c3cccc(Cl)c3)NCCc3c[nH]cn3)cc2)cc1 [III-35, (Z/E)-N-((2-(1H-imidazol-4-yl)ethylamino)(4′-methoxybiphenyl-4-ylamino)methylene)-3-chlorobenzamide]
- EC50 ([1]; Ramos cells): < 10 µM
- ATP Hydrolysis (IC40 μM) [2]: >10 µM
- ATP Synthesis (IC40 μM) [3]: <10 µM

Structure (SMILES): CS(=O)(=O)c1cccc(NC(=NC(=O)c2cccc(Cl)c2)NCCc2cnc[nH]2)c1 [III-37, (Z/E)-N-((2-(1H-imidazol-5-yl)ethylamino)(3-(methylsulfonyl)phenylamino)methylene)-3-chlorobenzamide]
- EC50 ([1]; Ramos cells): > 30 µM
- ATP Hydrolysis (IC40 μM) [2]: >30 µM
- ATP Synthesis (IC40 μM) [3]: >20 µM

Structure (SMILES): CS(=O)(=O)c1ccccc1NC(=NC(=O)c1cccc(Cl)c1)NCCc1cnc[nH]1 [III-38, (Z/E)-N-((2-(1H-imidazol-5-yl)ethylamino)(2-(methylsulfonyl)phenylamino)methylene)-3-chlorobenzamide]
- EC50 ([1]; Ramos cells): > 30 µM
- ATP Hydrolysis (IC40 μM) [2]: >30 µM
- ATP Synthesis (IC40 μM) [3]: >20 µM

Structure (SMILES): CN(C)S(=O)(=O)c1ccc(NC(=NC(=O)c2cccc(Cl)c2)NCCc2cnc[nH]2)cc1 [III-39, (Z/E)-N-((2-(1H-imidazol-5-yl)ethylamino)(4-(N,N-dimethylsulfamoyl)phenylamino)methylene)-3-chlorobenzamide]
- EC50 ([1]; Ramos cells): > 30 µM
- ATP Hydrolysis (IC40 μM) [2]: >30 µM
- ATP Synthesis (IC40 μM) [3]: >20 µM

Structure (SMILES): CN(C)S(=O)(=O)c1cccc(NC(=NC(=O)c2cccc(Cl)c2)NCCc2cnc[nH]2)c1 [III-40, (Z/E)-N-((2-(1H-imidazol-5-yl)ethylamino)(3-(N,N-dimethylsulfamoyl)phenylamino)methylene)-3-chlorobenzamide]
- EC50 ([1]; Ramos cells): > 30 µM
- ATP Hydrolysis (IC40 μM) [2]: >30 µM
- ATP Synthesis (IC40 μM) [3]: >20 µM

Structure (SMILES): CCc1ccccc1NC(=NC(=O)c1cccc(Cl)c1)NCCc1c[nH]cn1 [III-41]
- EC50 ([1]; Ramos cells): > 30 µM
- ATP Hydrolysis (IC40 μM) [2]: >10 µM
- ATP Synthesis (IC40 μM) [3]: >10 µM

Structure (SMILES): CCc1cccc(NC(=NC(=O)c2cccc(Cl)c2)NCCc2c[nH]cn2)c1 [III-42]
- EC50 ([1]; Ramos cells): > 20 µM
- ATP Hydrolysis (IC40 μM) [2]: >20 µM
- ATP Synthesis (IC40 μM) [3]: <10 µM

Structure (SMILES): CCc1ccc(NC(=NC(=O)c2cccc(Cl)c2)NCCc2c[nH]cn2)cc1 [III-43, (Z/E)-N-((2-(1H-imidazol-4-yl)ethylamino)(4-ethylphenylamino)methylene)-3-chlorobenzamide]
- EC50 ([1]; Ramos cells): > 10 µM
- ATP Hydrolysis (IC40 μM) [2]: >20 µM
- ATP Synthesis (IC40 μM) [3]: >10 µM

Structure (SMILES): CCc1cccc(CC)c1NC(=NC(=O)c1cccc(Cl)c1)NCCc1c[nH]cn1 [III-44, (Z/E)-N-((2-(1H-imidazol-4-yl)ethylamino)(2,6-diethylphenylamino)methylene)-3-chlorobenzamide]
- Ramos cell death (relative to Bz-423) ([1]; Ramos cells, multiple of Bz-423): 2.5 ×Bz-423
- hydro (relative to Bz-423) ([2]; ATP hydrolysis, multiple of Bz-423): 0.8 ×Bz-423
- syn (relative to Bz-423) ([3]; ATP synthesis, multiple of Bz-423): 0.7 ×Bz-423

Structure (SMILES): N#Cc1cccc(-c2ccc(NC(=NC(=O)c3cccc(Cl)c3)NCCc3c[nH]cn3)cc2)c1 [III-45, (Z/E)-N-((2-(1H-imidazol-4-yl)ethylamino)(3′-cyanobiphenyl-4-ylamino)methylene)-3-chlorobenzamide]
- EC50 ([1]; Ramos cells): < 10 µM
- ATP Hydrolysis (IC40 μM) [2]: >30 µM
- ATP Synthesis (IC40 μM) [3]: <10 µM

Structure (SMILES): O=C(/N=C(\Nc1ccc(-c2ccccc2)cc1)Nc1cccc2[nH]ccc12)c1cccc(Cl)c1 [IV-1, (Z/E)-N-((1H-indol-4-ylamino)(biphenyl-4-ylamino)methylene)-3-chlorobenzamide]
- EC50 ([1]; Homo sapiens, Ramos): > 10 µM
- ATP Hydrolysis (IC40 μM) [2]: >30 µM
- ATP Synthesis (IC40 μM) [3]: >10 µM

- ATP Hydrolysis (IC40 μM) [2]: >10 µM
- ATP Synthesis (IC40 μM) [3]: <10 µM
Structure (SMILES): O=C(/N=C(/NCCn1ccnc1)Nc1ccc(-c2ccccc2)cc1)c1cccc(Cl)c1 [IV-2, (Z/E)-N-((2-(1H-imidazol-1-yl)ethylamino)(biphenyl-4-ylamino)methylene)-3-chlorobenzamide]
- EC50 ([1]; Homo sapiens, Ramos): > 10 µM

- ATP Hydrolysis (IC40 μM) [2]: <10 µM
- ATP Synthesis (IC40 μM) [3]: <10 µM
Structure (SMILES): O=C(/N=C(/NCCc1nc[nH]n1)Nc1ccc(-c2ccccc2)cc1)c1cccc(Cl)c1 [IV-3, (Z/E)-N-((2-(1H-1,2,4-triazol-3-yl)ethylamino)(biphenyl-4-ylamino)methylene)-3-chlorobenzamide]
- EC50 ([1]; Homo sapiens, Ramos): > 10 µM

- ATP Hydrolysis (IC40 μM) [2]: >10 µM
- ATP Synthesis (IC40 μM) [3]: <10 µM
Structure (SMILES): O=C(/N=C(/NCCc1cn[nH]c1)Nc1ccc(-c2ccccc2)cc1)c1cccc(Cl)c1 [IV-4, (Z/E)-N-((2-(1H-pyrazol-4-yl)ethylamino)(biphenyl-4-ylamino)methylene)-3-chlorobenzamide]
- EC50 ([1]; Homo sapiens, Ramos): < 10 µM

- ATP Hydrolysis (IC40 μM) [2]: <10 µM
- ATP Synthesis (IC40 μM) [3]: <10 µM
Structure (SMILES): C[C@@H](Cc1c[nH]cn1)N/C(=N/C(=O)c1cccc(Cl)c1)Nc1ccc(-c2ccccc2)cc1 [IV-5, (S,Z/E)-N-((1-(1H-imidazol-4-yl)propan-2-ylamino)(biphenyl-4-ylamino)methylene)-3-chlorobenzamide]
- EC50 ([1]; Homo sapiens, Ramos): < 10 µM

- ATP Hydrolysis (IC40 μM) [2]: <10 µM
- ATP Synthesis (IC40 μM) [3]: <10 µM
Structure (SMILES): C[C@H](Cc1c[nH]cn1)N/C(=N/C(=O)c1cccc(Cl)c1)Nc1ccc(-c2ccccc2)cc1 [IV-6, (R,Z/E)-N-((1-(1H-imidazol-4-yl)propan-2-ylamino)(biphenyl-4-ylamino)methylene)-3-chlorobenzamide]
- EC50 ([1]; Homo sapiens, Ramos): < 10 µM

- ATP Hydrolysis (IC40 μM) [2]: >30 µM
- ATP Synthesis (IC40 μM) [3]: >20 µM
Structure (SMILES): O=C(/N=C(/NCCN1CCNC1=O)Nc1ccc(-c2ccccc2)cc1)c1cccc(Cl)c1 [IV-7, (Z/E)-N-((biphenyl-4-ylamino)(2-(2-oxoimidazolidin-1-yl)ethylamino)methylene)-3-chlorobenzamide]
- EC50 ([1]; Homo sapiens, Ramos): > 30 µM

Structure (SMILES): O=C(/N=C(\Nc1ccc(-c2ccccc2)cc1)Nc1ccc2[nH]ccc2c1)c1cccc(Cl)c1 [IV-8, (Z/E)-N-((1H-indol-5-ylamino)(biphenyl-4-ylamino)methylene)-3-chlorobenzamide]
- EC50 ([1]; Homo sapiens, Ramos): < 10 µM
- ATP Hydrolysis (IC40 μM) [2]: >30 µM
- ATP Synthesis (IC40 μM) [3]: >10 µM

- ATP Hydrolysis (IC40 μM) [2]: >30 µM
- ATP Synthesis (IC40 μM) [3]: >20 µM
Structure (SMILES): O=C(/N=C(/NCc1cccc2[nH]ccc12)Nc1ccc(-c2ccccc2)cc1)c1cccc(Cl)c1 [IV-9]
- EC50 ([1]; Homo sapiens, Ramos): > 30 µM

Structure (SMILES): Cc1ccc(C(=O)N=C(NCCc2c[nH]cn2)Nc2cccc(-c3ccccc3)c2)cc1 [VI-1, (Z/E)-N-((2-(1H-imidazol-4-yl)ethylamino)(biphenyl-3-ylamino)methylene)-4-methylbenzamide]
- EC50 ([1]; Ramos cells): > 10 µM
- ATP Hydrolysis (IC40 μM) [2]: >10 µM
- ATP Synthesis (IC40 μM) [3]: <10 µM

Structure (SMILES): Cc1cccc(C(=O)N=C(NCCc2c[nH]cn2)Nc2cccc(-c3ccccc3)c2)c1 [VI-2, (Z/E)-N-((2-(1H-imidazol-4-yl)ethylamino)(biphenyl-3-ylamino)methylene)-3-methylbenzamide]
- EC50 ([1]; Ramos cells): > 10 µM
- ATP Hydrolysis (IC40 μM) [2]: >10 µM
- ATP Synthesis (IC40 μM) [3]: <10 µM
